# Test results as given in US7195769B2, “Pharmaceutical compositions of anti-tubercular drugs and process for their preparation” (Panacea Biotec Limited, priority 2000, dated 2007).
# Assay: pH dependence of rifampicin degradation in presence of isoniazid
# Assay type: physicochemical
# From the text: Thereafter, above pH 3 the degradation is minimal.
smiles,measurement,setting,value
CO[C@H]1/C=C/O[C@@]2(C)Oc3c(C)c(O)c4c(O)c(c(/C=N/N5CCN(C)CC5)c(O)c4c3C2=O)NC(=O)/C(C)=C\C=C\[C@H](C)[C@H](O)[C@@H](C)[C@@H](O)[C@@H](C)[C@H](OC(C)=O)[C@@H]1C [rifampicin],degradation of rifampicin in presence of isoniazid,above pH 3,minimal
same,degradation of rifampicin in presence of isoniazid,pH around 1,minimum
same,degradation of rifampicin in presence of isoniazid,pH between 2 and 3,increases abruptly
